Test results reported in ChEMBL document CHEMBL4251601 (Eur J Med Chem, 2018).
Each block holds one molecule with its values, some of them ahead of it.

What was measured:
[1] = Unbound brain to plasma concentration ratio in mouse at 1 mg/kg, iv after 5 mins; format: ADME, organism-based; settings: read-out: K(p,uu,brain)
[2] = system: U-87 MG; experiment: Antiproliferative activity against human U87MG cells after 72 hrs by DAPI staining based assay; format: functional, cell-based, U-87MG ATCC
[3] = Unbound brain to plasma concentration ratio in mouse at 30 mg/kg, po; format: ADME, organism-based; settings: read-out: K(p,uu,brain)
[4] = (§1) AUC (0 to infinity) in Sprague-Dawley rat at 5 mg/kg, po administered as single dose by LC-MS/MS analysis; format: ADME, organism-based; design: dose 5 mg/kg, route oral, time infinity; settings: Sprague-Dawley, in vivo
[5] = Stability in CD-1 mouse liver microsomes assessed as parent compound remaining at 10 uM preincubated for 5 mins followed by NADP addition measured after 60 mins by LC-MS/MS analysis; format: ADME, microsome; settings: read-out: Stability
[6] = target: CDK6/cyclin D3 (Homo sapiens, UniProt Q00534); experiment: Inhibition of CDK6/Cyclin-D3 (unknown origin) using histoneH1 as substrate after 90 mins by ADP-Glo assay; format: protein-complex assay
Sequence of CDK6/cyclin D3 (P30281 whole entry): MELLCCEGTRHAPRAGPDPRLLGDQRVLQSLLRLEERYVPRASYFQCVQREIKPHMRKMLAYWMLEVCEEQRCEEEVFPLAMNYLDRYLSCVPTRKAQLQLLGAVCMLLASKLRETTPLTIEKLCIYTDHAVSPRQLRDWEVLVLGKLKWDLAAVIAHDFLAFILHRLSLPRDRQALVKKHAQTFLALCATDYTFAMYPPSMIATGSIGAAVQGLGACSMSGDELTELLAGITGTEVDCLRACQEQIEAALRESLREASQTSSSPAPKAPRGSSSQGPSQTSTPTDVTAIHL
Sequence of CDK6/cyclin D3 (Q00534 whole entry): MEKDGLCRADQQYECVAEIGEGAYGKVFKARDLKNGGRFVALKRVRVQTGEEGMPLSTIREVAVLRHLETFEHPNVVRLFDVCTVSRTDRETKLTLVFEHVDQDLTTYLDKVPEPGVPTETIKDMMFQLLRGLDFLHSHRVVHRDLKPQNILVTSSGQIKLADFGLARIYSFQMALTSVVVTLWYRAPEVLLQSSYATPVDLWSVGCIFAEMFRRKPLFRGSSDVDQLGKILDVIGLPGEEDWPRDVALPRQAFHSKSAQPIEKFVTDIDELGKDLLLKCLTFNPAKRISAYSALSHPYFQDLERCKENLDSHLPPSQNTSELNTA

[7] = (§2) AUC (0 to infinity) in Sprague-Dawley rat at 2 mg/kg, iv administered as single dose by LC-MS/MS analysis; format: ADME, organism-based; design: dose 2 mg/kg, route intravenous, time infinity; settings: Sprague-Dawley, in vivo
[8] = target: Cyclin-dependent kinase 4/cyclin D1 (Homo sapiens, UniProt P11802); experiment: Inhibition of CDK4/Cyclin-D1 (unknown origin) using histone-H1 as substrate after 90 mins by ADP-Glo assay; format: protein-complex assay
Sequence of Cyclin-dependent kinase 4/cyclin D1 (P11802 whole entry): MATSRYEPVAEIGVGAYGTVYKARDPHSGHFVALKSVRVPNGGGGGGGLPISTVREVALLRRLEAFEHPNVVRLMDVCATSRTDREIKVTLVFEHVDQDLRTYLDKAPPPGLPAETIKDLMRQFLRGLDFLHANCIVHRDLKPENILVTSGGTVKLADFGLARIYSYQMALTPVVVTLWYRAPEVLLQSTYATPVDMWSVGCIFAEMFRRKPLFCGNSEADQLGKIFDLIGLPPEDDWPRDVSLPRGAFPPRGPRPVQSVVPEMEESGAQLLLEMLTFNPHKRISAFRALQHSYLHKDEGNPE
Sequence of Cyclin-dependent kinase 4/cyclin D1 (P24385 whole entry, further chain): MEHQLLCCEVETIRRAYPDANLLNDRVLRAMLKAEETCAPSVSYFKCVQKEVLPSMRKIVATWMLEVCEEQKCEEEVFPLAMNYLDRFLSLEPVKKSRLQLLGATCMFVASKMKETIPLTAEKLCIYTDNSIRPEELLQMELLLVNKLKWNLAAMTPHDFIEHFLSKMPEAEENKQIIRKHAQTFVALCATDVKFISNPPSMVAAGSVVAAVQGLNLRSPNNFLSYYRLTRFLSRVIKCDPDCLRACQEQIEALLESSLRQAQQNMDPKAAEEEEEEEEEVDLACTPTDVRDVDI

[9] = Half life in Sprague-Dawley rat at 5 mg/kg, po administered as single dose by LC-MS/MS analysis; format: ADME, organism-based; settings: in vivo
[10] = (§3) Oral bioavailability in Sprague-Dawley rat at 5 mg/kg administered as single dose by LC-MS/MS analysis; format: ADME, organism-based; settings: Sprague-Dawley, in vivo
[11] = Cmax in Sprague-Dawley rat at 5 mg/kg, po administered as single dose by LC-MS/MS analysis; format: ADME, organism-based; design: dose 5 mg/kg, route oral; settings: in vivo
[12] = Clearance in Sprague-Dawley rat at 2 mg/kg, iv administered as single dose by LC-MS/MS analysis; format: ADME, organism-based; settings: in vivo
[13] = AUC (0 to 24 hrs) in Sprague-Dawley rat at 2 mg/kg, iv administered as single dose by LC-MS/MS analysis; format: ADME, organism-based; design: dose 2 mg/kg, time < 24 hr, route intravenous; settings: in vivo
[14] = Volume of distribution at steady state in Sprague-Dawley rat at 2 mg/kg, iv administered as single dose by LC-MS/MS analysis; format: ADME, organism-based; settings: in vivo, read-out: Vdss
[15] = Stability in CD-1 mouse liver microsomes assessed as parent compound remaining at 10 uM measured after 60 mins in absence of NADPH-regenerating system by LC-MS/MS analysis; format: ADME, microsome; settings: read-out: Stability
[16] = Half life in CD-1 mouse liver microsomes at 10 uM preincubated for 5 mins followed by NADP addition by LC-MS/MS analysis; format: ADME, microsome
[17] = Intrinsic clearance in CD-1 mouse liver microsomes at 10 uM preincubated for 5 mins followed by NADP addition by LC-MS/MS analysis; format: ADME, microsome; settings: read-out: CLH
[18] = Half life in Sprague-Dawley rat at 2 mg/kg, iv administered as single dose by LC-MS/MS analysis; format: ADME, organism-based; settings: in vivo
[19] = AUC (0 to 24 hrs) in Sprague-Dawley rat at 5 mg/kg, po administered as single dose by LC-MS/MS analysis; format: ADME, organism-based; design: time < 24 hr, dose 5 mg/kg, route oral; settings: in vivo
[20] = system: Rattus norvegicus; experiment: as §1; format: ADME, organism-based; design: dose 5 mg/kg, route oral, time infinity; settings: in vivo
[21] = system: Rattus norvegicus; experiment: as §2; format: ADME, organism-based; design: dose 2 mg/kg, route intravenous, time infinity; settings: in vivo
[22] = system: Rattus norvegicus; experiment: as §3; format: ADME, organism-based; settings: in vivo
[23] = organism: Homo sapiens; experiment: Selectivity ratio of IC50 for CDK1/Cyclin-A2 (unknown origin) to IC50 for CDK6/Cyclin-D3 (unknown origin)
[24] = Unbound brain to plasma concentration ratio in CD-1 nude mouse at 100 mg/kg, po; format: ADME, organism-based; settings: read-out: K(p,uu,brain)

Compound: CCN1CCN(Cc2ccc(Nc3ncc(F)c(-c4cc(F)c5nc(C)n(C(C)C)c5c4)n3)nc2)CC1 [ABEMACICLIB]
IC50 [2]: 48.1 nM | Kp uu [3]: 0.03

Compound: CCN1CCN(Cc2ccc(Nc3ncc(F)c(-c4cc(F)c5c(c4)C4(CCCC4)C(C)=N5)n3)nc2)CC1
AUC(0-inf) [4]: 827 ng·h/mL | remaining at 1 h, 10 µM [5]: 1% | IC50 [6]: 2 nM | AUC(0-inf) [7]: 686 ng·h/mL | IC50 [8]: 12 nM | half-life [9]: 3.6 h | bioavailability [10]: 48% | Cmax [11]: 77.1 ng/mL | clearance [12]: 48.9 mL/min/kg | AUC(0-t) at 24 h [13]: 670 ng·h/mL | Vd [14]: 16.7 L/kg | remaining at 1 h, 10 µM [15]: 81.1% | half-life at 10 µM [16]: 8.1 min | microsomal CLint at 10 µM [17]: 171 µL/min/mg | half-life [18]: 4.6 h | AUC(0-t) at 24 h [19]: 813 ng·h/mL

Compound: CCN1CCN(c2ccc(Nc3ncc(F)c(-c4ccc5c(c4)C4(CCCC4)C(C)=N5)n3)nc2)CC1
AUC [20]: 3651 ng·h/mL | AUC [21]: 2000 ng·h/mL | F [22]: 25% | Cmax [11]: 99.9 ng/mL | clearance [12]: 16.9 mL/min/kg | Ratio IC50 [23]: 18 | AUC(0-t) at 24 h [13]: 1900 ng·h/mL | Vd [14]: 7.1 L/kg | half-life [18]: 6.1 h | AUC(0-t) at 24 h [19]: 1200 ng·h/mL

Results, then the molecule that gave them:

Kp uu at 5 min [1]: 0.01
Compound: CC(=O)c1c(C)c2cnc(Nc3ccc(N4CCNCC4)cn3)nc2n(C2CCCC2)c1=O [PALBOCICLIB]

Kp uu [24]: 0.12
Compound: CN(C)C(=O)c1cc2cnc(Nc3ccc(N4CCNCC4)cn3)nc2n1C1CCCC1 [RIBOCICLIB]
